Experimental data published in ChEMBL document CHEMBL3217739 (Medchemcomm, 2011).

Experiments:
[1] = tested on: Toxoplasma gondii; assay: Antitoxoplasma activity against Toxoplasma gondii RH tachyzoites isolated from human brain assessed as parasite growth inhibition after 48 hrs by hematoxylin-eosin staining based light microscopy; format: functional, organism-based
[2] = tested on: Plasmodium falciparum; assay: Antimalarial activity against schizont stage of chloroquine-resistant Plasmodium falciparum W2 infected in erythrocytes assessed as inhibition of [3H]hypoxanthine incorporation after 48 hrs by scintillation counting analysis; format: functional, organism-based
[3] = tested on: Toxoplasma gondii; assay: Antitoxoplasma activity against Toxoplasma gondii RH tachyzoites isolated from human brain assessed as parasite growth inhibition after 24 hrs by hematoxylin-eosin staining based light microscopy; format: functional, organism-based
[4] = tested on: Plasmodium falciparum; assay: Antimalarial activity against schizont stage of atovaquone-resistant Plasmodium falciparum Tm90C2b infected in erythrocytes assessed as inhibition of [3H]hypoxanthine incorporation after 96 hrs by scintillation counting analysis; format: functional, organism-based
[5] = tested on: Plasmodium falciparum; assay: Antimalarial activity against schizont stage of chloroquine-resistant Plasmodium falciparum W2 infected in erythrocytes assessed as inhibition of [3H]hypoxanthine incorporation after 96 hrs by scintillation counting analysis; format: functional, organism-based
[6] = tested on: Plasmodium falciparum; assay: Antimalarial activity against schizont stage of chloroquine-susceptible Plasmodium falciparum 3D7 infected in erythrocytes assessed as inhibition of [3H]hypoxanthine incorporation after 48 hrs by scintillation counting analysis; format: functional, organism-based
[7] = tested on: Plasmodium falciparum; assay: Antimalarial activity against schizont stage of chloroquine-susceptible Plasmodium falciparum 3D7 infected in erythrocytes assessed as inhibition of [3H]hypoxanthine incorporation after 96 hrs by scintillation counting analysis; format: functional, organism-based
[8] = tested on: Plasmodium falciparum; assay: Antimalarial activity against schizont stage of atovaquone-resistant Plasmodium falciparum Tm90C2b infected in erythrocytes assessed as inhibition of [3H]hypoxanthine incorporation after 48 hrs by scintillation counting analysis; format: functional, organism-based
[9] = Stability of the compound in RPMI medium assessed as half life at 100 uM by HPLC analysis in presence of 10% human serum; format: physicochemical; conditions: RPMI medium with 10% human serum
[10] = Cytotoxicity against rhesus monkey LLC-MK2 cells assessed as cell viability after 48 hrs by MTS assay; format: cell-based, Macaca mulatta; conditions: read-out: LD50
[11] = Cytotoxicity against concanavalin A stimulated BALB/c mouse splenocytes after 72 hrs by alamar blue dye based plate reader analysis; format: cell-based, Splenocyte; conditions: read-out: LD50
[12] = Chemical stability of the compound in aqueous phosphate buffer of pH 7.4 assessed as half life at 100 uM by HPLC analysis; format: physicochemical
[13] = tested on: Plasmodium falciparum; assay: Ratio of ciprofloxacin IC50 to compound IC50 for chloroquine-susceptible Plasmodium falciparum 3D7 infected in erythrocytes after 48 hrs; format: functional
[14] = Therapeutic index, ratio of LD50 for concanavalin A stimulated BALB/c mouse splenocytes to IC50 for chloroquine-susceptible Plasmodium falciparum 3D7 infected in erythrocytes; format: cell-based; conditions: read-out: Ratio LD50/IC50
[15] = tested on: Plasmodium falciparum; assay: Ratio of ciprofloxacin IC50 to compound IC50 for chloroquine-resistant Plasmodium falciparum W2 infected in erythrocytes after 48 hrs; format: functional
[16] = tested on: Plasmodium falciparum; assay: Ratio of ciprofloxacin IC50 to compound IC50 for chloroquine-resistant Plasmodium falciparum W2 infected in erythrocytes after 96 hrs; format: functional
[17] = Therapeutic index, ratio of LD50 for rhesus monkey LLC-MK2 cells to IC50 for Toxoplasma gondii RH tachyzoites; format: cell-based; conditions: read-out: Ratio LD50/IC50
[18] = tested on: Plasmodium falciparum; assay: Ratio of ciprofloxacin IC50 to compound IC50 for atovaquone-resistant Plasmodium falciparum Tm90C2b infected in erythrocytes after 48 hrs; format: functional
[19] = tested on: Plasmodium falciparum; assay: Ratio of ciprofloxacin IC50 to compound IC50 for atovaquone-resistant Plasmodium falciparum Tm90C2b infected in erythrocytes after 96 hrs; format: functional
[20] = tested on: Plasmodium falciparum; assay: Ratio of ciprofloxacin IC50 to compound IC50 for chloroquine-susceptible Plasmodium falciparum 3D7 infected in erythrocytes after 96 hrs; format: functional

SMILES: CCc1nc(N)nc(N)c1-c1ccc(Cl)cc1 [PYRIMETHAMINE]
- IC50 [1]: 120 nM
- IC50 [2]: 10.4 nM
- IC50 [3]: 240 nM
- IC50 [4]: 1.4 nM
- IC50 [5]: 2.3 nM
- IC50 [6]: 13.3 nM
- IC50 [7]: 2.1 nM
- IC50 ([8]; read-out: IC50): 14.6 nM

SMILES: O=C(O)c1cn(C2CC2)c2cc(N3CCNCC3)c(F)cc2c1=O [CIPROFLOXACIN]
- IC50 [2]: 122000 nM
- IC50 [4]: 15300 nM
- IC50 [5]: 16800 nM
- IC50 [6]: 47000 nM
- IC50 [7]: 12800 nM
- IC50 [8]: 71800 nM

SMILES: CCOC(=O)c1cn(C2CC2)c2cc(N3CCN(Cc4ccccc4)CC3)c(F)cc2c1=O
- half-life at 100 µM [9]: > 76 h
- IC50 [1]: 1240 nM
- CC50 at 48 h [10]: > 30000 nM
- IC50 [2]: 1610 nM
- IC50 [3]: 1700 nM
- CC50 at 72 h [11]: 57000 nM
- IC50 [4]: 2350 nM
- IC50 [5]: 490 nM
- IC50 [6]: 1080 nM
- half-life at 100 µM [12]: > 76 h
- IC50 [7]: 320 nM
- IC50 ([8]; read-out: IC50): 2560 nM

SMILES: CCOC(=O)c1cn(C2CC2)c2cc(N3CCNCC3)c(F)cc2c1=O [CIPROFLOXACIN ETHYL ESTER]
- half-life at 100 µM [9]: > 76 h
- IC50 [1]: 420 nM
- CC50 at 48 h [10]: > 30000 nM
- IC50 [2]: 3670 nM
- IC50 [3]: 960 nM
- CC50 at 72 h [11]: > 40000 nM
- IC50 [4]: 2270 nM
- IC50 [5]: 840 nM
- IC50 [6]: 2330 nM
- half-life at 100 µM [12]: > 76 h
- IC50 [7]: 890 nM
- IC50 ([8]; read-out: IC50): 3560 nM

SMILES: O=C1C(O)=C([C@H]2CC[C@H](c3ccc(Cl)cc3)CC2)C(=O)c2ccccc21 [ATOVAQUONE]
- IC50 [2]: 3.9 nM
- IC50 [4]: 388 nM
- IC50 [5]: 2 nM
- IC50 [6]: 2.3 nM
- IC50 [7]: 1.9 nM
- IC50 ([8]; read-out: IC50): > 10000 nM

SMILES: CCOC(=O)c1cn(C2CC2)c2cc(N3CCN(CCC45CC6CC(CC(C6)C4)C5)CC3)c(F)cc2c1=O
- Ratio IC50 [13]: 47
- selectivity ratio [14]: > 100
- half-life at 100 µM [9]: > 76 h
- IC50 [1]: 460 nM
- Ratio IC50 [15]: 60
- CC50 at 48 h [10]: 27800 nM
- IC50 [2]: 2060 nM
- Ratio IC50 [16]: 7
- IC50 [3]: 920 nM
- selectivity ratio [17]: > 60
- CC50 at 72 h [11]: > 100000 nM
- IC50 [4]: 2230 nM
- IC50 [5]: 710 nM
- IC50 [6]: 1000 nM
- Ratio IC50 [18]: 29
- half-life at 100 µM [12]: > 76 h
- IC50 [7]: 410 nM
- Ratio IC50 [19]: 7
- Ratio IC50 [20]: 31
- IC50 ([8]; read-out: IC50): 2460 nM

SMILES: C=C[C@H]1CN2CC[C@H]1C[C@H]2[C@H](O)c1ccnc2ccc(OC)cc12 [QUININE]
- IC50 [2]: 917 nM
- IC50 [7]: 112 nM
- IC50 ([8]; read-out: IC50): 1070 nM
